Experimental data published in patent US11066447B2, “Aureobasidium derivatives and methods of synthesis” (AureoGen Biosciences, Inc., priority 2016, dated 2021).
≈ marks a conversion by molar mass, not a printed value. Where two headings read alike, the source gives them in different places. Numbered stars: 1 amine (or outer) side, 2 acyl side, 3 side chain; on linkers, the order of the positions; unused ones are H or OH. Square brackets hold non-standard residues; d marks the D form. Peptide text beside a SMILES is read from it. X35 = CN([C@@H](Cc1cccc(-c2ccc(-n3c4ccccc4c4ccccc43)cc2)c1)C(=O)[*:2])[*:1]; X28 = CN([C@@H](Cc1cccc(-c2ccc(C(F)(F)F)cc2)c1)C(=O)[*:2])[*:1]; X29 = CN([C@@H](Cc1cccc(-c2ccc(F)cc2)c1)C(=O)[*:2])[*:1]; Hmp(2R,3S) = CC[C@H](C)[C@@H](O)C(=O)O; NMeVal(β-OH) = CN[C@H](C(=O)O)C(C)(C)O; NMeV = CN[C@H](C(=O)O)C(C)C

What was measured:
[1] = test system: A. fumigatus MMX 5280 ATCC MYA-3626; assay: MIC/MEC assay (CLSI microdilution); assay type: cell-based, Aspergillus fumigatus; conditions: Aspergillus fumigatus, 48 h
Method: (§1) Aureobasidin and test compounds (i.e., AbA derivatives of the present invention) were received from Kalexsyn, Inc. (Kalamazoo, Mich.) as powder and were stored at 4° C. until the day of assay. […] amphotericin was obtained from Sigma Aldrich and stored under like conditions. […] Ethanol (95%) was used as a solvent and diluent for all AbA compounds. Amphotericin B was tested from 0.06-64 μg/mL. Amphotericin B (Sigma Aldrich; St. Louis, Mo.; Cat No. A9528-100MG, Lot No. 120M4087) was dissolved and diluted with dimethylsulfoxide (DMSO; Sigma Aldrich; St. Louis, Mo.; Cat No. 472301 Lot No. SHBD2072V).
(§2) The solvents were added to the test agents and the stock solutions stood for approximately 1 hr at room temperature prior to use to auto sterilize. Stock solutions were prepared at 40× the desired top concentration in the test plate.
(§3) All of the test isolates were originally received from either the American Type Culture Collection (ATCC), clinical labs, or directly from Aureogen Biosciences. Organisms stored by Micromyx were cultured on agar medium appropriate to each organism. Colonies were picked by swab from the isolation plates and put into suspension in appropriate broth containing cryoprotectant. The suspensions were aliquoted into cryogenic vials and maintained at −80° C.
(§4) Prior to testing, Candida isolates were streaked from the frozen vials on Sabouraud dextrose agar. The yeast isolates were incubated for 48 hours at 35° C. before use. The fungal isolates were obtained from enumerated fungal stocks previously prepared at Micromyx and stored in phosphate buffered saline at 4° C.
(§5) Test Media. The medium employed for the MIC assay was RPMI-1640 medium from HyClone Laboratories (Logan, Utah; Lot No. AYB60287A). The medium was prepared according to Clinical and Laboratory Standards Institute (CLSI) guidelines (1, 2), and modified to include 0.002% Tween-80. Candida parapsilosis ATCC 22019 (MMX 2323) and Aspergillus fumigatus ATCC MYA-3626 (MMX 5280) were also tested without Tween-80 to provide data for the quality control of amphotericin B in accordance with CLSI (3) and to assess the effect of Tween-80 on the activity of the test agents.
(§6) Test Procedure. The MIC assay method followed the procedure described by CLSI (1, 2) and employed automated liquid handlers to conduct serial dilutions and liquid transfers. Automated liquid handlers included the Multidrop 384 (Labsystems, Helsinki, Finland), Biomek 2000 and Biomek FX (Beckman Coulter, Fullerton Calif.). The wells in columns 2-12 in standard 96-well microdilution plates (Costar 3795) were filled with 150 μl of the appropriate diluent (95% EtOH for investigational compounds, 100% DMSO for amphotericin B). These assay plates would become the ‘mother plates’ from which the assay ‘daughter plates’ would be prepared. The drugs (300 μL at 40× the desired top concentration in the test plates) were dispensed into the appropriate well in Column 1 of the mother plates. The Biomek 2000 was used to make two-fold serial dilutions through Column 11 in the “mother plate”. The wells of Column 12 contained no drug and served as the organism growth control wells.
(§7) The daughter plates were loaded with 185 μL per well on the Multidrop 384 with RPMI plus 0.002% Tween-80 or RPMI containing no Tween-80 for the testing of the two QC isolates. The daughter plates were prepared on the Biomek FX instrument which transferred 5 μL of drug solution from each well of a mother plate to each corresponding well of each daughter plate in a single step.
(§8) A standardized inoculum of each organism was prepared per CLSI methods (1, 2). For the Candida isolates, colonies were picked from the streak plate and a suspension was prepared in RPMI to equal a 0.5 McFarland standard. This suspension was diluted 1:100 in RPMI resulting in a final concentration of approximately 0.5-2.5×10^3 CFU/mL. […]

[2] = test system: C. parapsilosis MMX 2323 ATCC 22019; assay: MIC assay (CLSI microdilution); assay type: cell-based, Candida parapsilosis; conditions: read-out: MIC
Method: as §1, §2, §3, §4, §5, §6, §7, §8

[3] = test system: A. fumigatus MMX 6781 ATCC MYA-4609; assay: MIC/MEC assay (CLSI microdilution); assay type: cell-based; conditions: Aspergillus fumigatus; for MIC: 48 h, RPMI plus 0.002% Tween-80, read-out: MIC; for minimal effective concentration: RPMI plus 0.002% Tween-80, 48 hr
Method: as §1, §2, §3, §4, §5, §6, §7, §8

[4] = test system: A. flavus MMX 5948; assay: MIC/MEC assay (CLSI microdilution); assay type: cell-based; conditions: Aspergillus flavus, MMX5948, 48 h; for minimal effective concentration: RPMI plus 0.002% Tween-80; for MIC: RPMI plus 0.002% Tween-80, read-out: MIC
Method: as §1, §2, §3, §4, §5, §6, §7, §8

[5] = test system: A. niger MMX 0624 ATCC 16888; assay: MIC/MEC assay (CLSI microdilution); assay type: cell-based; conditions: for minimal effective concentration: RPMI plus 0.002% Tween-80, read-out: MEC
Method: as §1, §2, §3, §4, §5, §6, §7, §8

[6] = test system: A. fumigatus MMX 5944; assay: MIC/MEC assay (CLSI microdilution); assay type: cell-based; conditions: Aspergillus fumigatus, MMX5944, 48 h; for minimal effective concentration: RPMI plus 0.002% Tween-80; for MIC: RPMI plus 0.002% Tween-80, read-out: MIC
Method: as §1, §2, §3, §4, §5, §6, §7, §8

[7] = test system: A. fumigatus MMX 6782 ATCC 13073; assay: MIC/MEC assay (CLSI microdilution); assay type: cell-based; conditions: Aspergillus fumigatus, ATCC13073, 48 h; for minimal effective concentration: RPMI plus 0.002% Tween-80, read-out: MEC; for MIC: RPMI plus 0.002% Tween-80, read-out: MIC
Method: as §1, §2, §3, §4, §5, §6, §7, §8

[8] = test system: C. albicans MMX 2000 ATCC 10231; assay: MIC assay (CLSI microdilution); assay type: cell-based; conditions: Candida albicans, ATCC10231, RPMI plus 0.002% Tween-80; read-out: MIC
Method: as §1, §2, §3, §4, §5, §6, §7, §8

[9] = test system: C. neoformans MMX 0634 ATCC 90112; assay: MIC assay (CLSI microdilution); assay type: cell-based; conditions: Cryptococcus neoformans, ATCC90112, RPMI plus 0.002% Tween-80; read-out: MIC
Method: as §1, §2, §3, §4, §5, §6, §7, §8

[10] = RPMI plus 0.002% Tween-80, read-out: MEC
[11] = RPMI plus 0.002% Tween-80, read-out: MIC
[12] = Without Tween-80, read-out: MEC
[13] = Without Tween-80, read-out: MIC
[14] = ATCC22019, RPMI plus 0.002% Tween-80
[15] = Aspergillus niger, ATCC16888, 48 h
[16] = Aspergillus niger, ATCC16888, 48 h, RPMI plus 0.002% Tween-80, read-out: MIC
[17] = RPMI plus 0.002% Tween-80, 48 hr

MIC [1, 11] [µg/mL]	MIC [1, 13] [µg/mL]	MIC [2, 14] [µg/mL]	MIC ([2]; ATCC22019, Without Tween-80) [µg/mL]	MIC [3] [µg/mL]	MIC [4] [µg/mL]	MIC [5, 16] [µg/mL]	MIC [6] [µg/mL]	MIC [7] [µg/mL]	MIC [8] [µg/mL]	MIC [9] [µg/mL]	MIC [5, 17]	SMILES	minimal effective concentration [1, 10] [µg/mL]	minimal effective concentration [1, 12] [µg/mL]	minimal effective concentration [3] [µg/mL]	minimal effective concentration [4] [µg/mL]	minimal effective concentration [5, 15] [µg/mL]	minimal effective concentration [6] [µg/mL]	minimal effective concentration [7] [µg/mL]	MEC [5, 17]
> 64	> 64	0.12	1 (≈ 0.836 µM)	> 64	> 64	0.25	> 64	> 64	0.015	0.12		CC[C@H](C)[C@@H]1NC(=O)[C@@H]2CCCN2C(=O)[C@H](Cc2cccc(-c3ccc(F)cc3)c2)N(C)C(=O)[C@H](Cc2ccccc2)NC(=O)[C@H](C(C)C)N(C)C(=O)[C@@H]([C@@H](C)CC)OC(=O)[C@H](C(C)(C)O)N(C)C(=O)[C@H](CC(C)C)NC(=O)[C@H](C(C)C)N(C)C1=O [Compound 1] (cyclo(F[X29]PI[NMeV]L[NMeVal(β-OH)][Hmp(2R,3S)][NMeV]))	0.5	2	0.5	1	0.25	0.5	0.5	
> 64	> 64	> 64	> 64	> 64	> 64	> 64	> 64	> 64	> 64	> 64		CC[C@H](C)[C@@H]1NC(=O)[C@@H]2CCCN2C(=O)[C@H](Cc2cccc(-c3ccc(-n4c5ccccc5c5ccccc54)cc3)c2)N(C)C(=O)[C@H](Cc2ccccc2)NC(=O)[C@H](C(C)C)N(C)C(=O)[C@@H]([C@@H](C)CC)OC(=O)[C@H](C(C)(C)O)N(C)C(=O)[C@H](CC(C)C)NC(=O)[C@H](C(C)C)N(C)C1=O [Compound 8] (cyclo(F[X35]PI[NMeV]L[NMeVal(β-OH)][Hmp(2R,3S)][NMeV]))	> 64	> 64	> 64	> 64	> 64	> 64	> 64	
> 64	> 64	0.5	2 (≈ 1.61 µM)	> 64	> 64		> 64	> 64	0.12	0.12	1/1 μg/mL	CC[C@H](C)[C@@H]1NC(=O)[C@@H]2CCCN2C(=O)[C@H](Cc2cccc(-c3ccc(C(F)(F)F)cc3)c2)N(C)C(=O)[C@H](Cc2ccccc2)NC(=O)[C@H](C(C)C)N(C)C(=O)[C@@H]([C@@H](C)CC)OC(=O)[C@H](C(C)(C)O)N(C)C(=O)[C@H](CC(C)C)NC(=O)[C@H](C(C)C)N(C)C1=O [Compound 3] (cyclo(F[X28]PI[NMeV]L[NMeVal(β-OH)][Hmp(2R,3S)][NMeV]))	> 64	> 64	> 64	> 64		> 64	> 64	1/1 μg/mL
